From PubChem BioAssay AID330 (DTP/NCI, 2004)
Several values for one entry are separate records, joined by “and”; a condition that tells them apart may be missing. Equal values may be shown once. Toxic doses and inconclusive results are not listed. The calls were made as follows: active = survival T/C of 150% or more; inactive = T/C below 125% in these data.

System: P388 leukemia ip, CD2F1 mice, survival T/C
Test: NCI In Vivo Anticancer Drug Screen. Data for tumor model P388 Leukemia (intraperitoneal) in CD2F1 (CDF1) mice
Conditions: endpoint: median survival time, higher = longer survival
Outline: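 Mice carrying the transplanted tumor received test compound or vehicle. Survival was recorded in each group, and the value is the treated-group measurement divided by that of the vehicle-treated control group.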

[1] = dose: 50.0 mg/kg/injection, schedule: Q01DX005 (ip), vehicle: saline with Tween-80
[2] = dose: 100.0 mg/kg/injection, schedule: Q01DX005 (ip), vehicle: saline with Tween-80
[3] = dose: 200.0 mg/kg/injection, schedule: Q01DX005 (ip), vehicle: saline with Tween-80
[4] = dose: 50.0 mg/kg/injection, schedule: Q01DX009 (ip), vehicle: saline with Tween-80
[5] = dose: 100.0 mg/kg/injection, schedule: Q01DX009 (ip), vehicle: saline with Tween-80
[6] = dose: 200.0 mg/kg/injection, schedule: Q01DX009 (ip), vehicle: saline with Tween-80
[7] = dose: 25.0 mg/kg/injection, schedule: Q01DX005 (ip), vehicle: Klucel (hydroxypropylcellulose) (HPC)
[8] = dose: 50.0 mg/kg/injection, schedule: Q01DX005 (ip), vehicle: Klucel (hydroxypropylcellulose) (HPC)
[9] = dose: 100.0 mg/kg/injection, schedule: Q01DX005 (ip), vehicle: Klucel (hydroxypropylcellulose) (HPC)
[10] = dose: 60.0 mg/kg/injection, schedule: Q01DX005 (ip), vehicle: saline with Tween-80
[11] = dose: 120.0 mg/kg/injection, schedule: Q01DX005 (ip), vehicle: saline with Tween-80
[12] = dose: 240.0 mg/kg/injection, schedule: Q01DX005 (ip), vehicle: saline with Tween-80

Measured: T/C

CCC(c1ccc(OC(=O)Cc2ccc(N(CCCl)CCCl)cc2)cc1)C(CC)c1ccc(OC(=O)Cc2ccc(N(CCCl)CCCl)cc2)cc1 (centres undefined)
inactive: dose: 80.0 mg/kg/injection, schedule: Q01DX009 (ip), vehicle: saline with Tween-80 92 % of control | dose: 120.0 mg/kg/injection, schedule: Q01DX009 (ip), vehicle: saline with Tween-80 93 % of control | dose: 180.0 mg/kg/injection, schedule: Q01DX009 (ip), vehicle: saline with Tween-80 89 % of control | dose: 270.0 mg/kg/injection, schedule: Q01DX009 (ip), vehicle: saline with Tween-80 90 % of control | dose: 405.0 mg/kg/injection, schedule: Q01DX009 (ip), vehicle: saline with Tween-80 92 % of control

Nc1ccccc1Sc1ccc2c3c(cccc13)C(=O)N(c1ccccc1)C2=O
inactive: [1] 91 % of control | [2] 90 % of control | [3] 100 % of control

O=S(=O)(Nc1cc2ccccc2cc1NS(=O)(=O)N1CCCCC1)N1CCCCC1
inactive: dose: 50.0 mg/kg/injection, schedule: Q01DX009 (ip), vehicle: Klucel (hydroxypropylcellulose) (HPC) 93 % of control | dose: 100.0 mg/kg/injection, schedule: Q01DX009 (ip), vehicle: Klucel (hydroxypropylcellulose) (HPC) 89 % of control

COC1/C=C/OC2(C)Oc3c(C)c(O)c4c(O)c(c(/C=N/N(C)c5ncnc6c5ncn6C5OC(CO)C(O)C5O)c(O)c4c3C2=O)NC(=O)C(C)=C/C=C/C(C)C(O)C(C)C(O)C(C)C(OC(C)=O)C1C (centres undefined)
inactive: [4] 100 % of control | [5] 102 % of control | [6] 102 % of control

CSc1ccc(OC(=O)Nc2ccc(Cl)c(Cl)c2)c(C)c1
inactive: dose: 50.0 mg/kg/injection, schedule: Q01DX009 (ip), vehicle: saline + alcohol 87 % of control | dose: 100.0 mg/kg/injection, schedule: Q01DX009 (ip), vehicle: saline + alcohol 87 % of control | dose: 200.0 mg/kg/injection, schedule: Q01DX009 (ip), vehicle: saline + alcohol 95 % of control

S=P(NCCS)(N1CC1)N1CC1
inactive: dose: 100.0 mg/kg/injection, schedule: Q04DX003 (ip), vehicle: saline with Tween-80 109 % of control | dose: 200.0 mg/kg/injection, schedule: Q04DX003 (ip), vehicle: saline with Tween-80 122 % of control | dose: 400.0 mg/kg/injection, schedule: Q04DX003 (ip), vehicle: saline with Tween-80 91 % of control

C/C(=N\NC(=S)Nc1ccc(C(=O)O)cc1C)c1ccccn1
inactive: [1] 114 % of control | [2] 121 % of control

Cn1c(-c2ccc(Cl)cc2)cc2cc(CN3C(=O)c4ccccc4C3=O)ccc21
inactive: dose: 25.0 mg/kg/injection, schedule: Q04DX003 (ip), vehicle: Klucel (hydroxypropylcellulose) (HPC) 95 % of control | dose: 50.0 mg/kg/injection, schedule: Q04DX003 (ip), vehicle: Klucel (hydroxypropylcellulose) (HPC) 96 % of control | dose: 100.0 mg/kg/injection, schedule: Q04DX003 (ip), vehicle: Klucel (hydroxypropylcellulose) (HPC) 87 % of control and 88 % of control | dose: 400.0 mg/kg/injection, schedule: Q04DX003 (ip), vehicle: Klucel (hydroxypropylcellulose) (HPC) 87 % of control

COc1ccc(Cl)[n+]([O-])n1
inactive: dose: 6.25 mg/kg/injection, schedule: Q04DX002 (ip), vehicle: Klucel (hydroxypropylcellulose) (HPC) 111 % of control | dose: 12.5 mg/kg/injection, schedule: Q04DX002 (ip), vehicle: Klucel (hydroxypropylcellulose) (HPC) 122 % of control | dose: 25.0 mg/kg/injection, schedule: Q04DX002 (ip), vehicle: Klucel (hydroxypropylcellulose) (HPC) 120 % of control | dose: 25.0 mg/kg/injection, schedule: Q04DX002 (ip), vehicle: saline 104 % of control | dose: 50.0 mg/kg/injection, schedule: Q04DX002 (ip), vehicle: Klucel (hydroxypropylcellulose) (HPC) 117 % of control | dose: 50.0 mg/kg/injection, schedule: Q04DX002 (ip), vehicle: saline 122 % of control | dose: 100.0 mg/kg/injection, schedule: Q04DX002 (ip), vehicle: saline 106 % of control

CN1C(=O)c2ccccc2NC12CCN(Cc1ccccc1)CC2
inactive: [7] 103 % of control | [8] 95 % of control | [9] 97 % of control

CC(=O)NC1C(OC(C)=O)OC(CS[As](C)C)C(OC(C)=O)C1OC(C)=O (centres undefined)
inactive: dose: 25.0 mg/kg/injection, schedule: Q01DX009 (ip), vehicle: saline with Tween-80 118 % of control | [4] 111 % of control

CC(=O)OC1CC(/C=C/C(=O)OC2=C(O)CCC2=O)=CN1 (centres undefined)
inactive: dose: 4.37 mg/kg/injection, schedule: Q01DX001 (ip), vehicle: Klucel (hydroxypropylcellulose) (HPC) 100 % of control | dose: 8.75 mg/kg/injection, schedule: Q01DX001 (ip), vehicle: Klucel (hydroxypropylcellulose) (HPC) 99 % of control | dose: 17.5 mg/kg/injection, schedule: Q01DX001 (ip), vehicle: Klucel (hydroxypropylcellulose) (HPC) 102 % of control | dose: 35.0 mg/kg/injection, schedule: Q01DX001 (ip), vehicle: Klucel (hydroxypropylcellulose) (HPC) 105 % of control

NNC(=O)c1nnc(N)o1
inactive: [10] 106 % of control | [11] 106 % of control | [12] 95 % of control

Cc1noc(NC(=O)NC(=O)c2c(F)cccc2F)c1C
inactive: dose: 50.0 mg/kg/injection, schedule: Q04DX002 (ip), vehicle: saline with Tween-80 99 % of control | dose: 100.0 mg/kg/injection, schedule: Q04DX002 (ip), vehicle: saline with Tween-80 99 % of control | dose: 200.0 mg/kg/injection, schedule: Q04DX002 (ip), vehicle: saline with Tween-80 100 % of control

COc1ccc(C(C)(c2cc(C(C)(C)C)c(O)c(C(C)(C)C)c2)n2ccnc2)cc1 (centres undefined)
inactive: [1] 98 % of control | [2] 94 % of control | [3] 91 % of control

Cc1cccc(CC(C)(O)Cc2cccc(C)n2)n1
inactive: dose: 50.0 mg/kg/injection, schedule: Q01DX009 (ip), vehicle: other 100 % of control | dose: 100.0 mg/kg/injection, schedule: Q01DX009 (ip), vehicle: other 100 % of control | dose: 200.0 mg/kg/injection, schedule: Q01DX009 (ip), vehicle: other 122 % of control

COc1ccc(C(c2cc3c(cc2O)OCO3)N2CCN(C(c3ccc(OC)c(O)c3)c3cc4c(cc3O)OCO4)CC2)cc1O (centres undefined)
inactive: [10] 96 % of control | [11] 101 % of control | [12] 112 % of control

CN1NC(C)(c2cccnc2)SC1=S (centres undefined)
inactive: [4] 95 % of control | [5] 100 % of control | [6] 97 % of control

CCc1cccc(C)c1N1C(=O)C(=O)C(c2nc3ccccc3o2)/C(=N\NS(=O)(=O)c2ccc(C)cc2)C1=O (centres undefined)
inactive: [10] 98 % of control | [11] 100 % of control | [12] 97 % of control

Nc1nnc2nc(C(C(=O)/C=C\c3cccc(O)c3)c3nc4nnc(N)n4[nH]c3=O)c(=O)[nH]n12
inactive: [1] 95 % of control | [2] 94 % of control | [3] 100 % of control

CCc1ncc(CO)n1Cc1cccc2ccccc12
inactive: [4] 100 % of control | [5] 102 % of control | [6] 103 % of control

CCC(c1cccc(O)c1)C(CC)c1cccc(O)c1 (centres undefined)
inactive: [8] 102 % of control | [9] 102 % of control | dose: 200.0 mg/kg/injection, schedule: Q01DX005 (ip), vehicle: Klucel (hydroxypropylcellulose) (HPC) 103 % of control

CCc1nc(N)nc(N)c1-c1ccc(NCCN)c(N)c1
inactive: dose: 12.5 mg/kg/injection, schedule: Q01DX005 (ip), vehicle: Klucel (hydroxypropylcellulose) (HPC) 104 % of control | [7] 101 % of control | [8] 103 % of control and 107 % of control

CC(C)=CO[Si](C)(C)C
inactive: dose: 50.0 mg/kg/injection, schedule: Q01DX009 (ip), vehicle: olive oil, sesame oil, peanut oil 99 % of control | dose: 100.0 mg/kg/injection, schedule: Q01DX009 (ip), vehicle: olive oil, sesame oil, peanut oil 99 % of control | dose: 200.0 mg/kg/injection, schedule: Q01DX009 (ip), vehicle: olive oil, sesame oil, peanut oil 114 % of control

CCOc1c(N=Nc2ccc(Cl)cc2)c(C)nn1C(=S)S
inactive: dose: 60.0 mg/kg/injection, schedule: Q01DX005 (ip), vehicle: Klucel (hydroxypropylcellulose) (HPC) 96 % of control | dose: 120.0 mg/kg/injection, schedule: Q01DX005 (ip), vehicle: Klucel (hydroxypropylcellulose) (HPC) 97 % of control

CCN(CC)CCOCC1CC2C(C=C1C)C2(C)C (centres undefined)
inactive: dose: 50.0 mg/kg/injection, schedule: Q01DX005 (ip), vehicle: saline 107 % of control | dose: 100.0 mg/kg/injection, schedule: Q01DX005 (ip), vehicle: saline 98 % of control

CCCCCCCCCCCCCCCC[N+](C)(C)Cc1ccccc1
inactive: dose: 6.25 mg/kg/injection, schedule: Q04DX003 (ip), vehicle: saline 98 % of control | dose: 12.5 mg/kg/injection, schedule: Q04DX003 (ip), vehicle: saline 98 % of control | dose: 25.0 mg/kg/injection, schedule: Q04DX003 (ip), vehicle: saline 100 % of control
